Measured values: patent US20250213482A1, “OXYGEN-ENHANCED ADAPTIVE FUNCTIONAL BEVERAGE FOR ANTI-AGING AND METHOD OF PREPARATION” (priority 2025, published 2025)

Legend:
[1] = daily intake of NMN for 90 days, long-term safety; format: in vivo; details: 500 mg daily for 90 days
[2] = PQQ supplementation over an 8-week period; format: in vivo; details: 8-week period of supplementation
Text: In another embodiment, PQQ supplementation promotes mitochondrial biogenesis and boosts oxidative metabolism, resulting in increased energy production. […] PQQ acts as a potent antioxidant, reducing oxidative stress by neutralizing harmful free radicals and lowering inflammation. By protecting neurons from oxidative damage, PQQ supplementation contributes to improved cognitive performance, including enhanced memory, attention, and mental clarity.

| SMILES | impact on blood sugar, liver function, or kidney function [1] | cognitive function [2] | oxidative stress [2] |
| --- | --- | --- | --- |
| NC(=O)c1ccc[n+]([C@@H]2O[C@H](COP(=O)([O-])O)[C@@H](O)[C@H]2O)c1 [NMN, nicotinamide mononucleotide] | no impact on blood sugar, liver function, or kidney function | – | – |
| O=C(O)c1cc(C(=O)O)c2c(n1)C(=O)C(=O)c1cc(C(=O)O)[nH]c1-2 [PQQ, pyrroloquinoline quinone] | – | enhances cognitive function | reduces oxidative stress |
